Broadly, the IC50 is the point on the concentration scale where inhibition reaches its midpoint. The viability, T/C is the result in the treated group divided by that in the control group, in per cent.

The text below walks through data of PubChem BioAssay AID1918993 (Molecular Pharmacology Branch, DTP, NCI, 2023).

This assay relates to 233499-124-R-J3-PDC complex spheroid growth. Put plainly: Anticancer human tumor 233499-124-R-J3-PDC patient-derived colon adenocarcinoma cell line growth inhibition [AhR]. Particulars: for viability, T/C: stronger effect = lower value. In outline: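 Agents were dosed in half-log steps down from roughly clinical Cmax, or from 10 microM where Cmax was unknown, alone and with AhR antagonists. Read-out: percent test/control growth of tumor spheroids containing HUVEC and MSC stromal cells.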

The mark [1] stands for this setting: curve of first compound, second compound 0.1 µM.
The mark [2] stands for this setting: curve of first compound, second compound 0.316 µM.
Where [3] appears, read: curve of first compound, second compound 1 µM.
Where [4] appears, read: curve of first compound, second compound 3.16 µM.
Where [5] appears, read: curve of first compound, second compound 10 µM.

“And” between values parts separate entries of the source, which are not always exact repeats. Equal entries are not always repeated. Some results are limits rather than exact numbers.
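Note: spheroids exposed to agents for seven days before reading.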

As to `COc1cc(C2c3cc4c(cc3C(OC3OC5COC(C)OC5C(O)C3O)C3COC(=O)C23)OCO4)cc(OC)c1O` (stereo unspecified) + Cc1cncc(-c2nc(NCCc3c[nH]c4ccccc34)c3ncn(C(C)C)c3n2)c1, the IC50 reads like this: under setting [1], more than 10 µM; under setting [2], more than 10 µM; under setting [3], more than 10 µM; under setting [4], more than 10 µM; under setting [5], less than 0.0316 µM. Further, the viability, T/C runs as follows: (second compound 0.1 µM, first compound 0.0316 µM) 92.6%; (second compound 0.1 µM, first compound 0.1 µM) 101%; (second compound 0.1 µM, first compound 0.316 µM) 109%; (second compound 0.1 µM, first compound 1 µM) 95.4%; (second compound 0.1 µM, first compound 3.16 µM) 98.6%; (second compound 0.1 µM, first compound 10 µM) 92.9%. The viability, T/C is, setting by setting: (second compound 0.316 µM, first compound 0.0316 µM) 91.7%; (second compound 0.316 µM, first compound 0.1 µM) 89.8%; (second compound 0.316 µM, first compound 0.316 µM) 86%; (second compound 0.316 µM, first compound 1 µM) 81.6%; (second compound 0.316 µM, first compound 3.16 µM) 83.9%; (second compound 0.316 µM, first compound 10 µM) 88.5%. Besides, the viability, T/C (second compound 1 µM, first compound 0.0316 µM) is 77.5%; the viability, T/C (second compound 1 µM, first compound 0.1 µM) is 84.4%; the viability, T/C (second compound 1 µM, first compound 0.316 µM) was 77.3%; the viability, T/C (second compound 1 µM, first compound 1 µM) was 88%; the viability, T/C (second compound 1 µM, first compound 3.16 µM) is 79.8%; the viability, T/C (second compound 1 µM, first compound 10 µM) is 69.9%. Also, the viability, T/C (second compound 3.16 µM, first compound 0.0316 µM) was 78.9%; the viability, T/C (second compound 3.16 µM, first compound 0.1 µM) was 79.5%; the viability, T/C (second compound 3.16 µM, first compound 0.316 µM) is 77.4%; the viability, T/C (second compound 3.16 µM, first compound 1 µM) is 73%; the viability, T/C (second compound 3.16 µM, first compound 3.16 µM) was 74.1%; the viability, T/C (second compound 3.16 µM, first compound 10 µM) was 55.9%. Besides, the viability, T/C reads like this: (second compound 10 µM, first compound 0.0316 µM) 9.81%; (second compound 10 µM, first compound 0.1 µM) 11.9%; (second compound 10 µM, first compound 0.316 µM) 30.9%; (second compound 10 µM, first compound 1 µM) 30.1%; (second compound 10 µM, first compound 3.16 µM) 22.2%; (second compound 10 µM, first compound 10 µM) 9.08%.
For `COc1cc(C2c3cc4c(cc3C(OC3OC5COC(C)OC5C(O)C3O)C3COC(=O)C23)OCO4)cc(OC)c1O` (stereo unspecified), the viability, T/C is, setting by setting: (compound 0.0316 µM) 101% and 87.7% and 99.6%; (compound 0.1 µM) 92.9% and 95.8% and 106%; (compound 0.316 µM) 98.6% and 95.4% and 95.7%; (compound 1 µM) 109% and 93.1% and 94.7%; (compound 3.16 µM) 91.3% and 92.4% and 110%; (compound 10 µM) 93.3% and 78.6% and 85.6%. Further, the IC50 (curve of compound) was more than 10 µM.
In the case of `CC1COCCN1c1cc(-c2ccnn2C)c2ccnc(-c3ccn[nH]3)c2n1` (stereo unspecified), the viability, T/C was 94.6% and 92.4% and 98.3% (compound 0.00316 µM); 88.1% and 91.6% and 75% (compound 0.01 µM); 91.3% and 96.4% and 105% (compound 0.0316 µM); 89.3% and 82.8% and 95.2% (compound 0.1 µM); 75.3% and 74.5% and 69.8% (compound 0.316 µM); 43% and 64% and 37.5% (compound 1 µM). Moreover, the IC50 (curve of compound) was 0.784 µM and > 1 µM and 0.642 µM.
Regarding `Cn1ncnc1C1c2n[nH]c(=O)c3cc(F)cc(c23)NC1c1ccc(F)cc1` (stereo unspecified), the viability, T/C was 97.9% and 96.7% and 93.9% (compound 0.000316 µM); 108% (2×) and 81% (compound 0.001 µM); 108% and 106% and 97.9% (compound 0.00316 µM); 102% and 109% and 99.2% (compound 0.01 µM); 92.5% and 107% and 103% (compound 0.0316 µM); 96.4% and 91.3% and 92.3% (compound 0.1 µM). Moreover, the IC50 (curve of compound) is more than 0.1 µM.
Turning to `Nc1ncn(C2CC(O)C(CO)S2)c(=O)n1` (stereo unspecified) + Cc1cncc(-c2nc(NCCc3c[nH]c4ccccc34)c3ncn(C(C)C)c3n2)c1, the IC50 under setting [1] is more than 0.3 µM; the IC50 under setting [2] was more than 0.3 µM; the 50% inhibitory concentration (IC50) under setting [3] was more than 0.3 µM; the IC50 under setting [4] is more than 0.3 µM; the IC50 under setting [5] was less than 0.000949 µM. Moreover, the viability, T/C is, setting by setting: (second compound 0.1 µM, first compound 0.000949 µM) 89.6%; (second compound 0.1 µM, first compound 0.003 µM) 96.5%; (second compound 0.1 µM, first compound 0.00949 µM) 89.8%; (second compound 0.1 µM, first compound 0.03 µM) 93.9%; (second compound 0.1 µM, first compound 0.0949 µM) 103%; (second compound 0.1 µM, first compound 0.3 µM) 103%. For the same molecule, the viability, T/C (second compound 0.316 µM, first compound 0.000949 µM) is 72.9%; the viability, T/C (second compound 0.316 µM, first compound 0.003 µM) is 83%; the viability, T/C (second compound 0.316 µM, first compound 0.00949 µM) is 86.9%; the viability, T/C (second compound 0.316 µM, first compound 0.03 µM) is 89.6%; the viability, T/C (second compound 0.316 µM, first compound 0.0949 µM) is 96.9%; the viability, T/C (second compound 0.316 µM, first compound 0.3 µM) was 97.1%. Further, the viability, T/C is, setting by setting: (second compound 1 µM, first compound 0.000949 µM) 77.3%; (second compound 1 µM, first compound 0.003 µM) 66.2%; (second compound 1 µM, first compound 0.00949 µM) 84.6%; (second compound 1 µM, first compound 0.03 µM) 85.6%; (second compound 1 µM, first compound 0.0949 µM) 89.1%; (second compound 1 µM, first compound 0.3 µM) 83.4%. Moreover, the viability, T/C (second compound 3.16 µM, first compound 0.000949 µM) was 101%; the viability, T/C (second compound 3.16 µM, first compound 0.003 µM) is 94.3%; the viability, T/C (second compound 3.16 µM, first compound 0.00949 µM) was 97.1%; the viability, T/C (second compound 3.16 µM, first compound 0.03 µM) is 103%; the viability, T/C (second compound 3.16 µM, first compound 0.0949 µM) is 104%; the viability, T/C (second compound 3.16 µM, first compound 0.3 µM) is 99.4%. Also, the viability, T/C runs as follows: (second compound 10 µM, first compound 0.000949 µM) 8.85%; (second compound 10 µM, first compound 0.003 µM) 8.14%; (second compound 10 µM, first compound 0.00949 µM) 14.4%; (second compound 10 µM, first compound 0.03 µM) 16.2%; (second compound 10 µM, first compound 0.0949 µM) 20.1%; (second compound 10 µM, first compound 0.3 µM) 26.1%.
